Consider 6 molecules from PMC6369240, “Biological evaluation and structure activity relationship of 9-methyl-1-phenyl-9H-pyrido[3,4-b]indole derivatives as anti-leishmanial agents” (Bioorganic Chemistry, 2019).

Series [1] in a line: HeLa cell cytotoxicity, Alamar blue assay. It is filed as cell-based. To be noted: human; HeLa cells, ~65 h incubation plus 5 h Alamar Blue. The method, then:
HeLa cell cytotoxicity studies were carried out as described previously. Briefly, the cells were cultured in DMEM supplemented with 10% fetal calf serum and 2 mM L-glutamine. Cells were plated at initial cell concentration of 2 × 10^4 cells/well and incubated with the compounds for ∼65 h prior to addition of Alamar Blue solution for further 5 h.

Series [2] concerns L. infantum JPCM5 MCAN/ES/98/LLM-87 promastigotes. Description: L. infantum promastigote assay (Alamar blue). Type of series: cell-based, Leishmania infantum. The conditions noted are these: for S.I (CC50/IC50), L. infantum promastigote: HeLa CC50 / L. infantum promastigote EC50; for EC50: 72 h, Alamar blue. The method, then: (§1) Anti-leishmanial activity of these analogues was determined by evaluating their inhibition activity against both promastigote, amastigote forms of Leishmania infantum and Leishmania donovani strains. […] Anti-leishmanial drugs miltefosine and pentamidine were used as standards for comparison purpose.
Anti-promastigote activity of these reported β-carboline derivatives was determined by Alamar blue assay method.
(§2) L. donovanipromastigotes were cultured at 37 °C in M199 medium supplemented with 10% heat-inactivated fetal calf serum. L. infantum JPCM5 MCAN/ES/98/LLM-87 promastigotes were cultured at 26 °C in modified Eagle’s medium (HOMEM). Parasites were incubated with serial dilutions of compounds for 72 h, followed by Alamar blue-based assay as previously described.

Series [3] deals with L. infantum JPCM5 MCAN/ES/98/LLM-87 axenic amastigotes. In words: L. infantum axenic amastigote assay (Alamar blue). It is filed as cell-based, Leishmania infantum. The conditions noted are these: for S.I (CC50/IC50), L. infantum axenic amastigote: HeLa CC50 / L. infantum axenic amastigote EC50; for EC50: Leishmania infantum, 72 h, Alamar blue. As for the experimental part: Alamar blue assay method was used to determine inhibition potential of these β-carboline derivatives against (human life stage forms) axenic amastigotes.
(§3) L. donovaniLdBOB axenic amastigotes or L. infantum JPCM5 MCAN/ES/98/LLM-87 were cultured at 37 °C in modified Eagle’s medium (HOMEM; L. infantum) and axenic amastigotes were incubated for 72 h with compounds, followed by Alamar blue-based assay as previously described.
On the technique in general: Resazurin is reduced to fluorescent resorufin, in cell work by metabolically active cells.

The test system of series [4] is L. donovani promastigotes. Description: L. donovani promastigote assay (Alamar blue). Type of series: cell-based, Leishmania donovani. The conditions noted are these: for S.I (CC50/IC50), L. donovani promastigote: HeLa CC50 / L. donovani promastigote EC50; for EC50: Leishmania donovani, 72 h, Alamar blue. The method, then: as §1
L. donovani promastigote inhibition potency of these reported β-carboline derivatives was determined by Alamar blue assay method.
as §2

The test system of series [5] is L. donovani LdBOB axenic amastigotes. Description: L. donovani axenic amastigote assay (Alamar blue). It is filed as cell-based, Leishmania donovani. To be noted: for EC50: 72 h, Alamar blue; for S.I (CC50/IC50), L. donovani axenic amastigote: HeLa CC50 / L. donovani axenic amastigote EC50. The method, then: as §3
Series [6] relates to L. donovani LdBOB intracellular amastigotes in PMA differentiated THP-1 cells. Description: Intra macrophage L. donovani (amastigote) assay in THP-1 cells. Type of series: cell-based, Leishmania donovani. The conditions noted are these: for S.I (CC50/IC50), L. donovani intracellular amastigote: HeLa CC50 / L. donovani intracellular amastigote EC50; for EC50: THP-1 macrophages, 72 h, microscopy readout. As for the experimental part: Although, axenic amastigotes assay most commonly used to screen new leishmanial agents are different from intracellular amastigotes in terms of protein expression and drug susceptibility. […] THP-1 (human monocytic leukemia) cells were a kind gift from Dr Susan Wylie (Dundee) and maintained in minimal essential medium plus 10% (vol/vol) FBS. […] Briefly, THP-1 cells (20,000 per well, 200 μL) were plated into 96 well plates in presence of 10 nM PMA and incubated at 37 °C in 5% CO2 atmosphere for 75 h. […] Any remaining extracellular amastigotes were removed and the adhered cells were washed with the same supplemented PBS solution as above. Pre-aliquoted compounds in a serial dilution were added from another plate, such that the total well volume was 200 μL and incubated for further 72 h. Cells were fixed with 100% methanol, stained with Giemsa and examined microscopically.

The conditions of series [7]: introduction statement; cited from earlier work.
[8] abbreviates: Leishmania donovani, THP-1, 72 h.

Consider `COc1ccc(N2CCN(C(=O)c3cc4c5ccccc5n(C)c4c(-c4ccccc4)n3)CC2)cc1` [7d, (4-(4-methoxyphenyl)piperazin-1-yl)(9-methyl-1-phenyl-9H-pyrido[3,4-b]indol-3-yl)methanone], for which the melting point was in the range of 170 to 172 °C. The cytotoxic concentration (CC50) in series [1] was over 500 µM. Also, in series [2], the “S.I (CC50/IC50), L. infantum promastigote” value is over 314.5. In series [3], the “S.I (CC50/IC50), L. infantum axenic amastigote” value was over 357.1 and the EC50 was found to be 1.4 ± 0.1 µM. In series [4], the “S.I (CC50/IC50), L. donovani promastigote” value is over 549.5 and the EC50 was 0.91 ± 0.09 µM. Besides, in series [5], the response was half-maximal at 0.9 ± 0.1 µM (EC50) and the “S.I (CC50/IC50), L. donovani axenic amastigote” value is given as 555.6. This molecule displayed an EC50 in series [5] (Leishmania donovani) of 0.91 µM. Also, in series [6], the “S.I (CC50/IC50), L. donovani intracellular amastigote” value worked out at 384.6 and the half-maximal effective concentration (EC50) came to 1.3 ± 0.1 µM. Also, the EC50 in series [6] (setting [8]) was found to be 1.4 µM.

The molecule `COc1ccccc1N1CCN(C(=O)c2cc3c4ccccc4n(C)c3c(-c3ccccc3)n2)CC1` [7f, (4-(2-methoxyphenyl)piperazin-1-yl)(9-methyl-1-phenyl-9H-pyrido[3,4-b]indol-3-yl)methanone] yielded a melting point of 168 to 170 °C. Besides, in series [1], the CC50 is over 500 µM. The “S.I (CC50/IC50), L. infantum promastigote” value in series [2] is reported as over 36.2. Further, the half-maximal effective concentration (EC50) in series [2] (Leishmania infantum) was 13.8 ± 0.9 µM. Besides, in series [3], the “S.I (CC50/IC50), L. infantum axenic amastigote” value is reported as over 32.7 and the EC50 was 15.3 ± 1.1 µM. In addition, in series [4], the “S.I (CC50/IC50), L. donovani promastigote” value is given as over 59.4 and the EC50 was found to be 8.42 ± 0.45 µM. The “S.I (CC50/IC50), L. donovani axenic amastigote” value in series [5] is 78.1. This molecule returned an EC50 in series [5] (Leishmania donovani) of 6.4 ± 0.2 µM. Also, the “S.I (CC50/IC50), L. donovani intracellular amastigote” value in series [6] was found to be 42.4. This molecule also gave an EC50 in series [6] (setting [8]) of 11.8 ± 0.7 µM.

On to `Cn1c2ccccc2c2cc(C(=O)N3CCN(c4ccc(Cl)cc4)CC3)nc(-c3ccccc3)c21` [7g, (4-(4-chlorophenyl)piperazin-1-yl)(9-methyl-1-phenyl-9H-pyrido[3,4-b]indol-3-yl)methanone], for which the melting point was 160 to 162 °C. For the same molecule, in series [1], the CC50 is over 500 µM. Besides, the “S.I (CC50/IC50), L. infantum promastigote” value in series [2] was over 340.1. Further, the midpoint of the response in series [2] (Leishmania infantum), the EC50, lay at 1.47 ± 0.32 µM. Also, in series [3], the “S.I (CC50/IC50), L. infantum axenic amastigote” value is over 263.2 and the response was half-maximal at 1.9 ± 0.2 µM (EC50). Besides, in series [4], the “S.I (CC50/IC50), L. donovani promastigote” value is reported as over 99.6 and the concentration giving a half-maximal response (EC50) came out at 5.02 ± 0.36 µM. Also, in series [5], the “S.I (CC50/IC50), L. donovani axenic amastigote” value came out at 131.6. In series [5] (Leishmania donovani), this molecule yielded an EC50 of 3.8 ± 0.5 µM. Also, the “S.I (CC50/IC50), L. donovani intracellular amastigote” value in series [6] is given as 79.4. For the same molecule, the EC50 in series [6] (setting [8]) turned out to be 6.3 ± 0.3 µM.

Molecule `Cn1c2ccccc2c2cc(C(=O)N3CCN(c4ccc([N+](=O)[O-])cc4)CC3)nc(-c3ccccc3)c21` [7j, (9-methyl-1-phenyl-9H-pyrido[3,4-b]indol-3-yl)(4-(4-nitrophenyl)piperazin-1-yl)methanone] returned a melting point of 200 to 202 °C. Besides, in series [1], the CC50 was over 500 µM. Moreover, the “S.I (CC50/IC50), L. infantum promastigote” value in series [2] was over 25.3. Also, in series [2] (Leishmania infantum), the response was half-maximal at 19.7 ± 1.7 µM (EC50). In addition, in series [3], the “S.I (CC50/IC50), L. infantum axenic amastigote” value is over 34.2 and the EC50 stood at 14.6 ± 2.9 µM. Moreover, in series [4], the “S.I (CC50/IC50), L. donovani promastigote” value was over 38.2 and the EC50 came to 13.1 ± 1.5 µM. Besides, the “S.I (CC50/IC50), L. donovani axenic amastigote” value in series [5] was 66.7. The molecule further yielded an EC50 in series [5] (Leishmania donovani) of 7.5 ± 0.4 µM. The “S.I (CC50/IC50), L. donovani intracellular amastigote” value in series [6] is recorded as 32.5. The midpoint of the response in series [6] (setting [8]), the EC50, lay at 15.4 ± 0.9 µM.

Regarding `Cn1c2ccccc2c2cc(C(=O)N3CCN(c4ccc(F)cc4)CC3)nc(-c3ccccc3)c21` [7k, (4-(4-fluorophenyl)piperazin-1-yl)(9-methyl-1-phenyl-9H-pyrido[3,4-b]indol-3-yl)methanone], the melting point was 188 to 190 °C. For the same molecule, in series [1], the CC50 was over 500 µM. Also, the “S.I (CC50/IC50), L. infantum promastigote” value in series [2] is over 29.1. The molecule also came in with an EC50 in series [2] (Leishmania infantum) of 17.2 ± 0.82 µM. In addition, in series [3], the “S.I (CC50/IC50), L. infantum axenic amastigote” value was over 33.3 and the EC50 turned out to be 15 ± 1.3 µM. Further, in series [4], the “S.I (CC50/IC50), L. donovani promastigote” value was over 40.3 and the EC50 amounted to 12.4 ± 1.4 µM. Besides, the “S.I (CC50/IC50), L. donovani axenic amastigote” value in series [5] is recorded as 53.8. In series [5] (Leishmania donovani), the response was half-maximal at 9.3 ± 0.5 µM (EC50). For the same molecule, in series [6], the “S.I (CC50/IC50), L. donovani intracellular amastigote” value was 49.5. The molecule further gave an EC50 in series [6] (setting [8]) of 10.1 ± 1.1 µM.

As for `CCCCCCCCCCCCCCCCOP(=O)([O-])OCC[N+](C)(C)C` [Miltefosine, reference compound], the EC50 is 12.6 ± 1.1 µM in series [2]; 12.4 µM in series [2] (Leishmania infantum); 4.8 ± 0.8 µM in series [3]; 3.12 ± 0.16 µM in series [4]; 2.8 ± 0.4 µM in series [5] (Leishmania donovani); 6.4 ± 0.3 µM in series [6] (setting [8]). Further, the half-life in series [7] is on record as 150 h.

In general, CC50 refers to the concentration at which the toxic effect on the cells reaches its halfway point. What is called EC50 is the concentration that produces a half-maximal response. The low end stands for a more potent agent, the high end for a less potent agent. As usually defined, the melting point is the temperature of the solid-liquid transition. As usually defined, the half-life is the time needed for the level to fall by half in the phase considered.
